From US10550400B2, “Methods to monitor post-translational gene silencing activity in plant tissues/cell types relevant for pathogen entry, propagation or replication” (Paris Sciences et Lettres—Quartier Latin, priority 2014, dated 2020)

Legend:
Format in all cases: in vivo, Arabidopsis thaliana
[1] = test system: phloem-specific IR-PTGS sensor; experiment: Visual chlorotic phenotype of sprayed phloem-specific IR-PTGS sensor (SUC-SUL plants); details: for chlorotic phenotype / PTGS activity, phloem-specific reporter: 2 mM SA with 0.02% Silwet L-77, 5 days, SUC-SUL; for vein-centered chlorotic phenotype (IR-PTGS activity): sprayed on phloem-specific IR-PTGS sensor
From the text: A. […]
In step (b), said molecule, microorganism or extract can be applied either at seedling stage or at later developmental stages such as at rosette stage. This molecule, microorganism or extract is applied either in liquid medium in (micro) well-plates, by infiltration using a needle-less syringe or vacuum, or by spray using a concentration of surfactant that is known from people skilled in the art.
Visual observation of step (c) can be made several days, preferably 4 to 5 days, after step (b) The term “silencing” means down-regulating or antagonizing, at least partly, a targeted gene transcript.
For this purpose, they have sprayed a previously characterized phloem-specific IR-PTGS sensor (Dunoyer et al., 2005) with either (1) Salicylic acid (SA), a well-characterized phytohormone that plays a critical role in resistance against biotrophic pathogens, (2) 2,6-dichloroisonicotonic acid and benzo-(1,2,3)-thiadiazole-7-carbothioic acid S-methyl ester (BTH), a functional analog of SA that is regularly used by farmers to enhance disease resistance in crops, (3) Aliette, formulated fosetyl-Aluminium that can stimulate plant antimicrobial defense in cultivated plants but also protect them from fungal and oomycete infections through a potent and systemic fungicide activity, (4) Serenade, which is composed of formulated Bacillus subtilis (5) formulated Laminarine, a beta 1-3 glucan that mimics fungal cell wall and therefore promote natural antifungal defense responses in some cultivated plants; and have further monitored the effects of such treatments on the vein-centered chlorotic phenotype of this IR-PTGS reporter system. […] It is noteworthy that the presented molecular analyses allow us (i) to detect at which steps of the PTGS a given molecule is acting (small RNA biogenesis and/or RISC activity) (ii) to quantify the strength by which the candidate molecules is modulating RNA silencing in a given tissue that is relevant for disease management. […]

[2] = test system: SUL protein; experiment: Western blot of SUL protein levels in SA-treated SUC-SUL leaves; details: 2 mM SA + 0.01% Silwet L-77, 3 days, vs Mock
Experimental: C. Western blot analyses showing SUL and CIP4 protein levels in SUC-SUL leaves treated with either Mock (0.01% Silwet L-77 only) or with 2 mM of SA (+0.01% Silwet L-77) for 3 days.
(§1) For this purpose, they have sprayed a previously characterized phloem-specific IR-PTGS sensor (Dunoyer et al., 2005) with either (1) Salicylic acid (SA), a well-characterized phytohormone that plays a critical role in resistance against biotrophic pathogens, (2) 2,6-dichloroisonicotonic acid and benzo-(1,2,3)-thiadiazole-7-carbothioic acid S-methyl ester (BTH), a functional analog of SA that is regularly used by farmers to enhance disease resistance in crops, (3) Aliette, formulated fosetyl-Aluminium that can stimulate plant antimicrobial defense in cultivated plants but also protect them from fungal and oomycete infections through a potent and systemic fungicide activity, (4) Serenade, which is composed of formulated Bacillus subtilis (5) formulated Laminarine, a beta 1-3 glucan that mimics fungal cell wall and therefore promote natural antifungal defense responses in some cultivated plants; and have further monitored the effects of such treatments on the vein-centered chlorotic phenotype of this IR-PTGS reporter system. […]

[3] = test system: SUL transcript; experiment: RT-qPCR of SUL transcript levels in SA-treated SUC-SUL leaves; details: 2 mM SA + 0.01% Silwet L-77, 3 days, vs Mock
Experimental: B. RT-qPCR analysis depicting SUL and CIP4 transcript levels in SUC-SUL leaves treated with either Mock (0.01% Silwet L-77 only) or with 2 mM of SA (+0.01% Silwet L-77) for 3 days.
as §1

[4] = test system: artificial siRNAs
From the text: These level analyses will determine (i) at which steps of the RNA silencing pathway a given molecule, microorganism or extract is acting (small RNA biogenesis, accumulation and/or activity) (ii) the intensity by which a given molecule, microorganism or extract is modulating RNA silencing. Regarding the quantification of artificial or endogenous small RNA accumulation, Low Molecular Weight (LMW) Northern blot analyses or Real Time quantitative PCR (RT-qPCR) analyses can be used. Concerning the quantification of artificial or endogenous small RNA targets, High Molecular Weight (HMW) Northern analyses or RT-PCR analyses can be used. […]

[5] = test system: biosensor specific to xylem parenchyma cells; experiment: Visual chlorosis of sprayed xylem-specific biosensors (AAP6-p::SUL-LUS, IRX3-p::SUL-LUS); details: 2 mM SA with 0.02% Silwet L-77, 5 days, AAP6-p::SUL-LUS and IRX3-p::SUL-LUS; listed as SA
Experimental: Picture of 5-week-old SUC-SUL, HYD-p::SUL-LUS, AAP6-p::SUL-LUS, IRX3-p::SUL-LUS or GC1-p::SUL-LUS plants treated either Mock (0.02% Silwet L-77 only) or 2 mM of SA (with 0.02% Silwet L-77) for 5 days.
To test whether the increase level of PTGS detected in SA-treated phloem-specific IR-PTGS sensor is detectable to other tissues, the inventors have sprayed different tissue-specific biosensors with the same concentration of SA. The biosensors specific to hydathodes, xylem parenchyma cells, guard cells and companion cells of phloem were sprayed with SA and the level of chlorosis was assessed 5 day later (FIG. 6). […] These observations therefore highlight the importance of using different tissue-specific biosensors to screen natural or synthetic compounds, microorganisms, macro- or micro-organism extracts that can have a PTGS inducer activity specifically in a given tissue that is relevant to manage a specific disease. On the contrary, we are anticipating that the whole series of reporters will be also exploited to identify molecules, microorganisms or extracts that can induce PTGS/immune responses in all the above tissues. Such compounds, microorganisms or extracts will have the potential to confer broad-spectrum disease resistance and to restrict growth of pathogens with different modes of entry, propagation and replication. […]

In the case of O=C(O)c1ccccc1O [Salicylic acid], the “chlorotic phenotype / PTGS activity, phloem-specific reporter” value [1] is reported as “promotes PTGS activity”, the “chlorotic phenotype / PTGS activity, phloem-specific reporter” value ([1]; listed as SA) is reported as “significant enhanced chlorotic phenotype” and the “vein-centered chlorotic phenotype (IR-PTGS activity)” value (from here on “vein-centered chlorotic phenotype”) [1] is reported as “significant enhanced chlorotic phenotypes”. For the same molecule, the SUL protein levels [2] was “significant decrease”, the SUL transcript accumulation [3] was “mild reduction” and the “accumulation of artificial siRNAs” value [4] was “no significant effect”. The “chlorotic phenotype / PTGS activity, xylem parenchyma reporters” value [5] was “not in other silencing reporter tested”.

With CSC(=O)c1cccc2nnsc12 [BTH, benzo-(1,2,3)-thiadiazole-7-carbothioic acid S-methyl ester] the “vein-centered chlorotic phenotype” value [1] was “significant enhanced chlorotic phenotypes”.

With O=C(O)c1cc(Cl)nc(Cl)c1 [2,6-dichloroisonicotonic acid] the “vein-centered chlorotic phenotype” value [1] was “significant enhanced chlorotic phenotypes”.
